Data published in ChEMBL document CHEMBL4295262, “Evaluation of the utility of stem-cell derived cardiomyocytes for drug proarrhythmic potential” (2019).
Values belong to the molecule of their own block, whether it stands above or below them.

Assays:
Settings in all cases: human, ipsc-cm
[1] = (§1) Electrical activity assay on cell lines treated with a given drug. DMSO was used as a vehicle and a control, unblinded dofetilide was used as a control.; assay type: ADME, cell-based
[2] = as §1; assay type: ADME, cell-based; remark: listed apart in the source
[3] = as §1; assay type: ADME, cell-based; design: FPDc: unit not given here
[4] = as §1
[5] = as §1; remark: listed apart in the source
[6] = as §1; remark: listed apart in the source
[7] = 0.01 µM, concentration (um) 0.01 uM
[8] = 0.1 µM, concentration (um) 0.1 uM
[9] = 10 µM, concentration (um) 10 uM
[10] = 100 µM, concentration (um) 100 uM
[11] = 0.03 µM, concentration (um) 0.03 uM
[12] = 0.09507 µM, concentration (um) 0.0950736 uM
[13] = 0.3004 µM, concentration (um) 0.300433 uM
[14] = 0.9494 µM, concentration (um) 0.949367 uM

Structure (SMILES): CC(C)NCC(O)c1ccc(NS(C)(=O)=O)cc1 (centres undefined) [SOTALOL]
FPD measurement [1, 8]: 50.96 FPDc
FPDc [1, 8]: 6 Values Out Of 6 Were Excluded Due To Quiescence Or 0 Fpdc
FPD measurement ([1]; 1 µM, concentration (um) 1 uM): 54.95 FPDc
FPDc ([1]; 1 µM, concentration (um) 1 uM): 6 Values Out Of 6 Were Excluded Due To Quiescence Or 0 Fpdc
FPD measurement [1, 9]: 164 FPDc
FPDc [1, 9]: 6 Values Out Of 6 Were Excluded Due To Quiescence Or 0 Fpdc
FPDc [1, 10]: 6 Values Out Of 6 Were Excluded Due To Quiescence Or 0 Fpdc
FPD measurement [2, 8]: 5 Values Out Of 5 Were Excluded Due To Quiescence Or 0 Apdc
FPDc [2, 8]: 22.36
FPD measurement ([2]; 1 µM, concentration (um) 1 uM): 5 Values Out Of 5 Were Excluded Due To Quiescence Or 0 Apdc
FPDc ([2]; 1 µM, concentration (um) 1 uM): 20.88
FPD measurement [2, 9]: 5 Values Out Of 5 Were Excluded Due To Quiescence Or 0 Apdc
FPDc [2, 9]: 24.73
FPD measurement [2, 10]: More Than Half The Wells Had A Quiescence Event Or Apdc Readings Of 0
FPDc [2, 10]: More Than Half The Wells Had A Quiescence Event Or Fpdc Readings Of 0
FPD measurement [3, 8]: 5 Values Out Of 5 Were Excluded Due To Quiescence Or 0 Apdc
FPDc [3, 8]: 44.43
FPD measurement ([3]; 1 µM, concentration (um) 1 uM): 5 Values Out Of 5 Were Excluded Due To Quiescence Or 0 Apdc
FPDc ([3]; 1 µM, concentration (um) 1 uM): 41.07
FPD measurement [3, 9]: 5 Values Out Of 5 Were Excluded Due To Quiescence Or 0 Apdc
FPDc [3, 9]: 57.04
FPD measurement [3, 10]: 5 Values Out Of 5 Were Excluded Due To Quiescence Or 0 Apdc
FPDc [3, 10]: 45.01
APDc ([4]; 0.1 µM): 62.02
FPD measurement ([4]; 0.1 µM): 62.02 FPDc
APDc ([4]; 1 µM): 63.35
FPD measurement ([4]; 1 µM): 63.35 FPDc
APDc ([4]; 10 µM): 71.54
FPD measurement ([4]; 10 µM): 71.54 FPDc
APDc ([4]; 100 µM): 79.39
FPD measurement ([4]; 100 µM): 79.39 FPDc

Structure (SMILES): Cc1nccn1CC1CCc2c(c3ccccc3n2C)C1=O (centres undefined) [ONDANSETRON]
FPD measurement ([5]; 0.03 µM): 54.59 FPDc
FPDc ([5]; 0.03 µM): 54.59
FPD measurement ([5]; 0.3 µM): 58.58 FPDc
FPDc ([5]; 0.3 µM): 58.58
FPD measurement ([5]; 3 µM): 68.22 FPDc
FPDc ([5]; 3 µM): 68.22
FPD measurement ([5]; 30 µM): More Than Half The Wells Had A Quiescence Event Or Fpdc Readings Of 0
FPDc ([5]; 30 µM): More Than Half The Wells Had A Quiescence Event Or Fpdc Readings Of 0
FPD measurement [3, 11]: 5 Values Out Of 5 Were Excluded Due To Quiescence Or 0 Apdc
FPDc [3, 11]: 29.28
FPDc ([3]; 0.3 µM, concentration (um) 0.3 uM): 58.03
FPDc ([3]; 3 µM, concentration (um) 3 uM): 37.01
FPDc ([3]; 30 µM, concentration (um) 30 uM): 17.75
FPD measurement ([6]; 0.03 µM): 1 Values Out Of 1 Were Excluded Due To Quiescence Or 0 Fpdc
FPDc ([6]; 0.03 µM): 1 Values Out Of 1 Were Excluded Due To Quiescence Or 0 Fpdc
FPD measurement ([6]; 0.3 µM): 1 Values Out Of 1 Were Excluded Due To Quiescence Or 0 Fpdc
FPDc ([6]; 0.3 µM): 1 Values Out Of 1 Were Excluded Due To Quiescence Or 0 Fpdc
FPD measurement ([6]; 3 µM): 1 Values Out Of 1 Were Excluded Due To Quiescence Or 0 Fpdc
FPDc ([6]; 3 µM): 1 Values Out Of 1 Were Excluded Due To Quiescence Or 0 Fpdc
FPD measurement ([6]; 30 µM): 1 Values Out Of 1 Were Excluded Due To Quiescence Or 0 Fpdc
FPDc ([6]; 30 µM): 1 Values Out Of 1 Were Excluded Due To Quiescence Or 0 Fpdc

Structure (SMILES): COc1ccccc1OCC(O)CN1CCN(CC(=O)Nc2c(C)cccc2C)CC1 (centres undefined) [RANOLAZINE]
FPD measurement [1, 8]: 51.73 FPDc
FPDc [1, 8]: 6 Values Out Of 6 Were Excluded Due To Quiescence Or 0 Fpdc
FPD measurement ([1]; 1 µM, concentration (um) 1 uM): 54.52 FPDc
FPDc ([1]; 1 µM, concentration (um) 1 uM): 6 Values Out Of 6 Were Excluded Due To Quiescence Or 0 Fpdc
FPD measurement [1, 9]: 75.35 FPDc
FPDc [1, 9]: 6 Values Out Of 6 Were Excluded Due To Quiescence Or 0 Fpdc
FPDc [1, 10]: 6 Values Out Of 6 Were Excluded Due To Quiescence Or 0 Fpdc
FPD measurement [2, 8]: 5 Values Out Of 5 Were Excluded Due To Quiescence Or 0 Apdc
FPDc [2, 8]: 23.9
FPD measurement ([2]; 1 µM, concentration (um) 1 uM): 5 Values Out Of 5 Were Excluded Due To Quiescence Or 0 Apdc
FPDc ([2]; 1 µM, concentration (um) 1 uM): 22.6
FPD measurement [2, 9]: 5 Values Out Of 5 Were Excluded Due To Quiescence Or 0 Apdc
FPDc [2, 9]: 23.41
FPD measurement [2, 10]: More Than Half The Wells Had A Quiescence Event Or Apdc Readings Of 0
FPDc [2, 10]: More Than Half The Wells Had A Quiescence Event Or Fpdc Readings Of 0
FPDc [3, 8]: 63.44
FPD measurement ([3]; 1 µM, concentration (um) 1 uM): 5 Values Out Of 5 Were Excluded Due To Quiescence Or 0 Apdc
FPDc ([3]; 1 µM, concentration (um) 1 uM): 57.19
FPDc [3, 9]: 48.79
FPDc [3, 10]: 47.75
APDc ([4]; 0.1 µM): 65.99
FPD measurement ([4]; 0.1 µM): 65.99 FPDc
APDc ([4]; 1 µM): 53.66
FPD measurement ([4]; 1 µM): 53.66 FPDc
APDc ([4]; 10 µM): 57.23
FPD measurement ([4]; 10 µM): 57.23 FPDc
APDc ([4]; 100 µM): 60.49
FPD measurement ([4]; 100 µM): 60.49 FPDc

Further lines, with some results ahead:

FPD measurement [1, 7]: 50.93 FPDc
FPD measurement [1, 8]: 55.37 FPDc
FPD measurement ([1]; 1 µM, concentration (um) 1 uM): 118.9 FPDc
FPDc [2, 7]: 21.62
FPDc [2, 8]: 20.73
FPDc ([2]; 1 µM, concentration (um) 1 uM): 22.97
FPDc [3, 7]: 55.57
FPDc [3, 8]: 48.34
FPDc ([3]; 1 µM, concentration (um) 1 uM): 57.73
FPDc [3, 9]: 73.71
APDc ([4]; 0.01 µM): 51.06
FPD measurement ([4]; 0.01 µM): 51.06 FPDc
APDc ([4]; 0.1 µM): 61.45
FPD measurement ([4]; 0.1 µM): 61.45 FPDc
APDc ([4]; 1 µM): 63.98
FPD measurement ([4]; 1 µM): 63.98 FPDc
APDc ([4]; 10 µM): 78.14
FPD measurement ([4]; 10 µM): 78.14 FPDc
Structure (SMILES): COc1cc2c(Nc3ccc(Br)cc3F)ncnc2cc1OCC1CCN(C)CC1 [VANDETANIB]
FPDc [1, 7]: 6 Values Out Of 6 Were Excluded Due To Quiescence Or 0 Fpdc
FPDc [1, 8]: 6 Values Out Of 6 Were Excluded Due To Quiescence Or 0 Fpdc
FPDc ([1]; 1 µM, concentration (um) 1 uM): 6 Values Out Of 6 Were Excluded Due To Quiescence Or 0 Fpdc
FPDc [1, 9]: 6 Values Out Of 6 Were Excluded Due To Quiescence Or 0 Fpdc
FPD measurement [2, 7]: 5 Values Out Of 5 Were Excluded Due To Quiescence Or 0 Apdc
FPD measurement [2, 8]: 5 Values Out Of 5 Were Excluded Due To Quiescence Or 0 Apdc
FPD measurement ([2]; 1 µM, concentration (um) 1 uM): 5 Values Out Of 5 Were Excluded Due To Quiescence Or 0 Apdc
FPD measurement [2, 9]: 5 Values Out Of 5 Were Excluded Due To Quiescence Or 0 Apdc
FPDc [2, 9]: 5 Values Out Of 5 Were Excluded Due To Quiescence Or 0 Fpdc
FPD measurement [3, 7]: 5 Values Out Of 5 Were Excluded Due To Quiescence Or 0 Apdc
FPD measurement [3, 8]: 5 Values Out Of 5 Were Excluded Due To Quiescence Or 0 Apdc
FPD measurement ([3]; 1 µM, concentration (um) 1 uM): 5 Values Out Of 5 Were Excluded Due To Quiescence Or 0 Apdc
FPD measurement [3, 9]: 5 Values Out Of 5 Were Excluded Due To Quiescence Or 0 Apdc

FPD measurement [1, 12]: 46.23 FPDc
FPD measurement [1, 13]: 47.89 FPDc
FPD measurement [1, 14]: 110.7 FPDc
FPDc [2, 12]: 19.16
FPDc [2, 13]: 19.98
FPDc [2, 14]: 19.22
FPDc ([2]; 3 µM, concentration (um) 3 uM): 16.9
FPDc [3, 12]: 53.17
FPDc [3, 13]: 49.96
FPDc [3, 14]: 53.33
FPDc ([3]; 3 µM, concentration (um) 3 uM): 51.88
Structure (SMILES): CC/C(=C(\c1ccccc1)c1ccc(OCCN(C)C)cc1)c1ccccc1 [TAMOXIFEN]
FPDc [1, 12]: 6 Values Out Of 6 Were Excluded Due To Quiescence Or 0 Fpdc
FPDc [1, 13]: 6 Values Out Of 6 Were Excluded Due To Quiescence Or 0 Fpdc
FPDc [1, 14]: 6 Values Out Of 6 Were Excluded Due To Quiescence Or 0 Fpdc
FPDc ([1]; 3 µM, concentration (um) 3 uM): 6 Values Out Of 6 Were Excluded Due To Quiescence Or 0 Fpdc
FPD measurement [2, 12]: 5 Values Out Of 5 Were Excluded Due To Quiescence Or 0 Apdc
FPD measurement [2, 13]: 5 Values Out Of 5 Were Excluded Due To Quiescence Or 0 Apdc
FPD measurement [2, 14]: 5 Values Out Of 5 Were Excluded Due To Quiescence Or 0 Apdc
FPD measurement ([2]; 3 µM, concentration (um) 3 uM): 5 Values Out Of 5 Were Excluded Due To Quiescence Or 0 Apdc
FPD measurement [3, 12]: 5 Values Out Of 5 Were Excluded Due To Quiescence Or 0 Apdc
FPD measurement [3, 13]: 5 Values Out Of 5 Were Excluded Due To Quiescence Or 0 Apdc
FPD measurement [3, 14]: 5 Values Out Of 5 Were Excluded Due To Quiescence Or 0 Apdc
FPD measurement ([3]; 3 µM, concentration (um) 3 uM): 5 Values Out Of 5 Were Excluded Due To Quiescence Or 0 Apdc
